This is an account of results in patent US20240408145A1, “Gene Therapy” (Ospedale San Raffaele S.r.l., priority 2021, published 2024).

Test [1] relates to BM-derived human CD34+ cells. The test can be described thus: CFU-C assay of CD34+ cells retrieved from bone marrow of primary recipients. Type of test: cell-based. As to conditions: 15-18 weeks, inhibitor at time of ex vivo GE vs standard protocol.
Test [2] relates to IL8, CXCL10, p21, p16. The test can be described thus: Gene expression in BM-derived HSPCs (qPCR). Type of test: cell-based, human. As to conditions: HS/AAV6 ± Anakinra. As to the method:
For gene expression analyses, total RNA was extracted using either miRNeasy Micro Kit (QIAGEN) according to the manufacturer's instructions and DNase treatment was performed using RNase-free DNase Set (QIAGEN). cDNA was synthetized with iScript cDNA Synthesis Kit (Bio-Rad). cDNA was then pre-amplified using TaqMan PreAmp Master Mix (ThermoFisher) and used for q-PCR in a Viia7 Real-time PCR thermal cycler using both Fast SYBR Green Master Mix (Thermofisher), after standard curve method optimization to reach the 100% primer efficiency for each couple of primers listed in 1. The relative expression of each target gene was first normalized to GUSB housekeeping genes expression and then represented as 2^-DCt for each sample or as fold changes (2^-DDCt) relative to the indicated control conditions.
(Real-time PCR tracks product formation cycle by cycle.)

Test [3] has as its system HDR-edited human HSPC clones. The test can be described thus: BAR-Seq clonal tracking of HDR-edited HSPCs. The test is classed as in vivo, NSG mice. As to conditions: end of experiment; inhibitor at time of GE vs standard gene edited cells. How it is done: PCR amplicons for individual samples were generated by nested PCR using primers listed in Ferrari, S. et al., 2020, Nat Biotech 38(11):1298-1308 and starting from >50-100 ng of purified gDNA. The first PCR step was performed with GoTaq G2 DNA Polymerase (Promega) according to the manufacturer's instructions using the following amplification protocol: 95° C. for 5 min, (95° C. for 0.5 min, 60° C. for 0.5 min, 72° C. for 0.5 min)×20 cycles, 72° C. for 5 min. Forward primer was designed to bind donor template upstream the BAR sequence, while the reverse primer annealed outside the homology arm, thus amplifying 328 bp of the on-target integrated cassette. For targeted deep sequencing of the plasmid and AAV libraries, the reverse primer annealed to the homology arm. […] Library quality was assessed by Agilent Tapestation (Agilent Technologies). […]
BAR-Seq data were processed with TagDust57 (v.2.33) to identify and extract the BAR from each sample by taking advantage of the structural composition of the reads. […] BAR abundance was quantified by summing the number of identical sequences. […] BARs with a read count lower than three were discarded and the remaining set of BARs were identified as the valid BARs of this sample. […]

Regarding “Anakinra: recombinant and slightly modified form of the Human interleukin-1 receptor antagonist (IL-1Ra); SEQ ID NO: 3”, in test [1], the “Number of colonies formed by BM-derived CD34+ cells” value is listed as “higher clonogenic potential”. In addition, in test [2], the “Relative expression of pro-inflammatory cytokines (IL8, CXCL10) in BM-derived edited CD34+ cells” value is recorded as “decrease in pro-inflammatory cytokines expression”. Further, the “Number of dominant unique BARs in human BM-derived cells (polyclonal reconstitution)” value in test [3] is “higher long-term polyclonal reconstitution”.
